Test results reported in patent EP0117412A1, “Propene derivatives and their use as plant growth inhibitors” (DAICEL CHEMICAL INDUSTRIES, LTD., priority 1983, dated 1984).

Key:
Experiment in all cases: Test of plant growth inhibiting action on sprouted seeds grown 7 days in a dispersion of wettable powder, visual evaluation
Format in all cases: in vivo
Echinochloa crus-galli = settings: 168 h, 20% wettable powder dispersed in water, 25°C, lighted thermostat, visual grade 1-5, read-out: Growth Inhibition, Seed of Plant Echinochloa crus-galli (converted); for inhibition at 20 ppm: Concentration 20 ppm; for inhibition at 100 ppm: Concentration 100 ppm
Text: (§1) Test Example (Test of Plant Growth Inhibiting Action)
(§2) 50 parts of talc, 25 parts of bentonite, 2 parts of Sorpol-9047 (surface active agent manufactured by Toho Chemical Co., Ltd.) and 3 parts of Sorpol-5039 (same as above) were thoroughly mixed to form a carrier. 50 weight parts of test compound was mixed with 200 weight parts of the carrier to prepare a 20% wettable powder. The wettable powder was dispersed in pure water to adjust the amount thereof to a definite concentration (see Table If to 17). Seeds of Oryza sativa or rice plant, Echinochloa crus-galli (a kind of millet) and Raphanus sativus (a kind of radish) all of which were forcedly sprouted in a separate dish, were put in the dispersion of wettable powder and grown for 7 days in a lighted thermostat at 25°C and the degree of growth was visually evaluated in accordance with the standard set forth below.
(§3) Standard of Evaluation in Growth Inhibition
(§4) • no influence: 1 • about 25% growth inhibition: 2 • about 50% growth inhibition: 3 • about 75% growth inhibition: 4 • about 100% growth inhibition: 5

Oryza sativa = settings: 168 h, 20% wettable powder dispersed in water, 25°C, lighted thermostat, visual grade 1-5, read-out: Growth Inhibition, Seed of Plant Oryza sativa (converted); for inhibition at 20 ppm: Concentration 20 ppm; for inhibition at 100 ppm: Concentration 100 ppm
Text: as §1, §2, §3, §4

Raphanus sativus = settings: 168 h, 20% wettable powder dispersed in water, 25°C, lighted thermostat, visual grade 1-5, read-out: Growth Inhibition, Seed of Plant Raphanus sativus (converted); for inhibition at 20 ppm: Concentration 20 ppm; for inhibition at 100 ppm: Concentration 100 ppm
Text: as §1, §2, §3, §4

SMILES: C=C(CSc1ccccc1)C(=O)OC [Compound 4-1, methyl 2-methylene-3-(phenylthio)propionate]
- inhibition at 20 ppm (Echinochloa crus-galli): 100%
- inhibition at 100 ppm (Echinochloa crus-galli): 100%
- inhibition at 20 ppm (Oryza sativa): 100%
- inhibition at 100 ppm (Oryza sativa): 100%
- inhibition at 20 ppm (Raphanus sativus): 0%
- inhibition at 100 ppm (Raphanus sativus): 25%

SMILES: C=C(CSc1ccc(Cl)cc1)C(=O)OC [Compound 4-2, methyl 2-methylene-3-(4-chlorophenyl-thio)propionate]
- inhibition at 20 ppm (Echinochloa crus-galli): 100%
- inhibition at 100 ppm (Echinochloa crus-galli): 100%
- inhibition at 20 ppm (Oryza sativa): 100%
- inhibition at 100 ppm (Oryza sativa): 100%
- inhibition at 20 ppm (Raphanus sativus): 0%
- inhibition at 100 ppm (Raphanus sativus): 25%

SMILES: C=C(CSc1ccc(C)cc1)C(=O)OC [Compound 4-3]
- inhibition at 20 ppm (Echinochloa crus-galli): 100%
- inhibition at 100 ppm (Echinochloa crus-galli): 100%
- inhibition at 20 ppm (Oryza sativa): 75%
- inhibition at 100 ppm (Oryza sativa): 100%
- inhibition at 20 ppm (Raphanus sativus): 0%
- inhibition at 100 ppm (Raphanus sativus): 0%

SMILES: C=C(CSc1ccc(OC)cc1)C(=O)OC [Compound 4-4]
- inhibition at 20 ppm (Echinochloa crus-galli): 100%
- inhibition at 100 ppm (Echinochloa crus-galli): 100%
- inhibition at 20 ppm (Oryza sativa): 100%
- inhibition at 100 ppm (Oryza sativa): 100%
- inhibition at 20 ppm (Raphanus sativus): 0%
- inhibition at 100 ppm (Raphanus sativus): 25%

SMILES: C=C(CSc1ccc2ccccc2c1)C(=O)OC [Compound 4-5]
- inhibition at 20 ppm (Echinochloa crus-galli): 100%
- inhibition at 100 ppm (Echinochloa crus-galli): 100%
- inhibition at 20 ppm (Oryza sativa): 75%
- inhibition at 100 ppm (Oryza sativa): 100%
- inhibition at 20 ppm (Raphanus sativus): 0%
- inhibition at 100 ppm (Raphanus sativus): 0%

SMILES: C=C(CSCc1ccccc1)C(=O)OC [Compound 4-6]
- inhibition at 20 ppm (Echinochloa crus-galli): 100%
- inhibition at 100 ppm (Echinochloa crus-galli): 100%
- inhibition at 20 ppm (Oryza sativa): 100%
- inhibition at 100 ppm (Oryza sativa): 100%
- inhibition at 20 ppm (Raphanus sativus): 0%
- inhibition at 100 ppm (Raphanus sativus): 25%

SMILES: C=C(CSC1CCCCC1)C(=O)OC [Compound 4-7]
- inhibition at 20 ppm (Echinochloa crus-galli): 75%
- inhibition at 100 ppm (Echinochloa crus-galli): 100%
- inhibition at 20 ppm (Oryza sativa): 0%
- inhibition at 100 ppm (Oryza sativa): 100%
- inhibition at 20 ppm (Raphanus sativus): 0%
- inhibition at 100 ppm (Raphanus sativus): 0%

SMILES: C=C(CSc1ccccn1)C(=O)OC [Compound 4-8]
- inhibition at 20 ppm (Echinochloa crus-galli): 0%
- inhibition at 100 ppm (Echinochloa crus-galli): 25%
- inhibition at 20 ppm (Oryza sativa): 0%
- inhibition at 100 ppm (Oryza sativa): 50%
- inhibition at 20 ppm (Raphanus sativus): 0%
- inhibition at 100 ppm (Raphanus sativus): 0%

SMILES: C=C(CSCc1ccc(Cl)cc1)C(=O)OC [Compound 4-9]
- inhibition at 20 ppm (Echinochloa crus-galli): 100%
- inhibition at 100 ppm (Echinochloa crus-galli): 100%
- inhibition at 20 ppm (Oryza sativa): 100%
- inhibition at 100 ppm (Oryza sativa): 100%
- inhibition at 20 ppm (Raphanus sativus): 0%
- inhibition at 100 ppm (Raphanus sativus): 50%

SMILES: C=C(COc1ccccc1)C(=O)OC [Compound 4-10, methyl 2-methylene-3-phenoxypropionate]
- inhibition at 20 ppm (Echinochloa crus-galli): 100%
- inhibition at 100 ppm (Echinochloa crus-galli): 100%
- inhibition at 20 ppm (Oryza sativa): 75%
- inhibition at 100 ppm (Oryza sativa): 100%
- inhibition at 20 ppm (Raphanus sativus): 0%
- inhibition at 100 ppm (Raphanus sativus): 100%

SMILES: C=C(COc1ccc(Cl)cc1C)C(=O)OC [Compound 4-11]
- inhibition at 20 ppm (Echinochloa crus-galli): 100%
- inhibition at 100 ppm (Echinochloa crus-galli): 100%
- inhibition at 20 ppm (Oryza sativa): 75%
- inhibition at 100 ppm (Oryza sativa): 100%
- inhibition at 20 ppm (Raphanus sativus): 0%
- inhibition at 100 ppm (Raphanus sativus): 25%

SMILES: C=C(COc1ccc(Cl)cc1Cl)C(=O)OC [Compound 4-12]
- inhibition at 20 ppm (Echinochloa crus-galli): 100%
- inhibition at 100 ppm (Echinochloa crus-galli): 100%
- inhibition at 20 ppm (Oryza sativa): 75%
- inhibition at 100 ppm (Oryza sativa): 100%
- inhibition at 20 ppm (Raphanus sativus): 0%
- inhibition at 100 ppm (Raphanus sativus): 0%

SMILES: C=C(COc1ccc(-c2ccccc2)cc1)C(=O)OC [Compound 4-13]
- inhibition at 20 ppm (Echinochloa crus-galli): 25%
- inhibition at 100 ppm (Echinochloa crus-galli): 25%
- inhibition at 20 ppm (Oryza sativa): 0%
- inhibition at 100 ppm (Oryza sativa): 0%
- inhibition at 20 ppm (Raphanus sativus): 0%
- inhibition at 100 ppm (Raphanus sativus): 0%

SMILES: C=C(COc1cccc(Cl)c1)C(=O)OC [Compound 4-14]
- inhibition at 20 ppm (Echinochloa crus-galli): 100%
- inhibition at 100 ppm (Echinochloa crus-galli): 100%
- inhibition at 20 ppm (Oryza sativa): 100%
- inhibition at 100 ppm (Oryza sativa): 100%
- inhibition at 20 ppm (Raphanus sativus): 25%
- inhibition at 100 ppm (Raphanus sativus): 75%

SMILES: C=C(COc1ccc(F)cc1)C(=O)OC [Compound 4-15, methyl 2-methylene-3-(4-fluorophenoxy)propionate]
- inhibition at 20 ppm (Echinochloa crus-galli): 75%
- inhibition at 100 ppm (Echinochloa crus-galli): 100%
- inhibition at 20 ppm (Oryza sativa): 50%
- inhibition at 100 ppm (Oryza sativa): 100%
- inhibition at 20 ppm (Raphanus sativus): 0%
- inhibition at 100 ppm (Raphanus sativus): 50%

SMILES: C=C(COc1cccc(C)c1)C(=O)OC [Compound 4-16]
- inhibition at 20 ppm (Echinochloa crus-galli): 100%
- inhibition at 100 ppm (Echinochloa crus-galli): 100%
- inhibition at 20 ppm (Oryza sativa): 75%
- inhibition at 100 ppm (Oryza sativa): 100%
- inhibition at 20 ppm (Raphanus sativus): 0%
- inhibition at 100 ppm (Raphanus sativus): 25%

SMILES: C=C(COc1cccc2c1CCCC2)C(=O)OC [Compound 4-17]
- inhibition at 20 ppm (Echinochloa crus-galli): 100%
- inhibition at 100 ppm (Echinochloa crus-galli): 100%
- inhibition at 20 ppm (Oryza sativa): 75%
- inhibition at 100 ppm (Oryza sativa): 100%
- inhibition at 20 ppm (Raphanus sativus): 0%
- inhibition at 100 ppm (Raphanus sativus): 0%

SMILES: C=C(COc1ccc(C)cc1)C(=O)OC [Compound 4-18]
- inhibition at 20 ppm (Echinochloa crus-galli): 100%
- inhibition at 100 ppm (Echinochloa crus-galli): 100%
- inhibition at 20 ppm (Oryza sativa): 75%
- inhibition at 100 ppm (Oryza sativa): 100%
- inhibition at 20 ppm (Raphanus sativus): 25%
- inhibition at 100 ppm (Raphanus sativus): 100%

SMILES: C=C(COc1ccc(SC)cc1)C(=O)OC [Compound 4-19]
- inhibition at 20 ppm (Echinochloa crus-galli): 100%
- inhibition at 100 ppm (Echinochloa crus-galli): 100%
- inhibition at 20 ppm (Oryza sativa): 100%
- inhibition at 100 ppm (Oryza sativa): 100%
- inhibition at 20 ppm (Raphanus sativus): 0%
- inhibition at 100 ppm (Raphanus sativus): 50%

SMILES: C=C(COc1ccc(OC)cc1)C(=O)OC [Compound 4-20]
- inhibition at 20 ppm (Echinochloa crus-galli): 100%
- inhibition at 100 ppm (Echinochloa crus-galli): 100%
- inhibition at 20 ppm (Oryza sativa): 100%
- inhibition at 100 ppm (Oryza sativa): 100%
- inhibition at 20 ppm (Raphanus sativus): 0%
- inhibition at 100 ppm (Raphanus sativus): 0%

SMILES: C=C(COc1ccc(C(F)(F)F)cc1)C(=O)OC [Compound 4-21]
- inhibition at 20 ppm (Echinochloa crus-galli): 0%
- inhibition at 100 ppm (Echinochloa crus-galli): 100%
- inhibition at 20 ppm (Oryza sativa): 0%
- inhibition at 100 ppm (Oryza sativa): 100%
- inhibition at 20 ppm (Raphanus sativus): 25%
- inhibition at 100 ppm (Raphanus sativus): 25%

SMILES: C=C(COc1ccc(C#N)cc1)C(=O)OC [Compound 4-22]
- inhibition at 20 ppm (Echinochloa crus-galli): 100%
- inhibition at 100 ppm (Echinochloa crus-galli): 100%
- inhibition at 20 ppm (Oryza sativa): 100%
- inhibition at 100 ppm (Oryza sativa): 100%
- inhibition at 20 ppm (Raphanus sativus): 50%
- inhibition at 100 ppm (Raphanus sativus): 100%

SMILES: C=C(COc1ccc2c(C)cc(=O)oc2c1)C(=O)OC [Compound 4-25]
- inhibition at 20 ppm (Echinochloa crus-galli): 75%
- inhibition at 100 ppm (Echinochloa crus-galli): 100%
- inhibition at 20 ppm (Oryza sativa): 25%
- inhibition at 100 ppm (Oryza sativa): 100%
- inhibition at 20 ppm (Raphanus sativus): 0%
- inhibition at 100 ppm (Raphanus sativus): 25%

SMILES: C=C(CON(CC)CC)C(=O)OC [Compound 4-26]
- inhibition at 20 ppm (Echinochloa crus-galli): 0%
- inhibition at 100 ppm (Echinochloa crus-galli): 25%
- inhibition at 20 ppm (Oryza sativa): 0%
- inhibition at 100 ppm (Oryza sativa): 50%
- inhibition at 20 ppm (Raphanus sativus): 0%
- inhibition at 100 ppm (Raphanus sativus): 0%

SMILES: C=C(COc1cccc2ncccc12)C(=O)OC [Compound 4-27]
- inhibition at 20 ppm (Echinochloa crus-galli): 100%
- inhibition at 100 ppm (Echinochloa crus-galli): 100%
- inhibition at 20 ppm (Oryza sativa): 75%
- inhibition at 100 ppm (Oryza sativa): 100%
- inhibition at 20 ppm (Raphanus sativus): 0%
- inhibition at 100 ppm (Raphanus sativus): 50%

SMILES: C=C(COc1ccc(C=Cc2ccccc2)cc1)C(=O)OC [Compound 4-28]
- inhibition at 20 ppm (Echinochloa crus-galli): 75%
- inhibition at 100 ppm (Echinochloa crus-galli): 75%
- inhibition at 20 ppm (Oryza sativa): 25%
- inhibition at 100 ppm (Oryza sativa): 25%
- inhibition at 20 ppm (Raphanus sativus): 0%
- inhibition at 100 ppm (Raphanus sativus): 0%
